This note sets out measurements from ChEMBL document CHEMBL6092174, “Synthesis and anti-influenza virus activity of substituted dibenzoxepine-based baloxavir derivatives” (Eur J Med Chem, 2024).

This test deals with Influenza A virus. Description: Antiviral activity against Influenza A virus NA-H274Y (A/PR/8/34) infected in dog MDCK cells assessed as reduction in cytopathic effect incubated for 2 days. The class given is functional, organism-based.
As to `O=C1c2c(O)c(=O)ccn2N([C@@H]2c3ccccc3SCc3c2ccc(F)c3F)[C@@H]2COCCN12` [BALOXAVIR], the EC50 came out at 2.18 nM.
The same measure for `O=C1c2c(O)c(=O)ccn2N([C@@H]2c3ccccc3OCc3c(Cl)cccc32)[C@@H]2COCCN12`: 20.5 nM; for `O=C1c2c(O)c(=O)ccn2N([C@H]2c3ccc(F)cc3COc3ccccc32)[C@@H]2COCCN12`: 4.2 nM.
